Source: EP1935986B1, “Luminogenic and fluorogenic compounds and methods to detect molecules or conditions” (priority 2005, dated 2006)

How the values were obtained:
[1] = molecular target: T1, QuantiLum Luciferase (Photinus pyralis, UniProt P08659); test: Emission spectra of luciferase reactions with luciferin, 5'-fluoroluciferin, 7'-fluoroluciferin; format: biochemical, firefly; conditions: reagent pH 7.4
T1 construct: purchased Promega Corporation E170
Protocol: All compounds except fluoroluciferin and ATP were purchased from Sigma Chemical. ATP was purchased from Amersham/Invitrogen.
Spectra were measured using 0.5s integration with 1 nm increments on a Spex Fluorolog.

[2] = molecular target: T1, QuantiLum Luciferase; test: ATP titration of firefly luciferase reactions with luciferin and fluoroluciferins; format: biochemical; conditions: result in words
Protocol: All compounds except 5'-fluoroluciferin and DTT were purchased from Sigma Chemical. To some of this reagent 5 mM ATP (Amersham/Invitrogen) was added, then serially diluted by half-logs to 0.05 mM. Reactions were initiated by adding equal volumes (0.1 ml) of reagent and DMEM medium (Gibco/Invitrogen) containing 0.1% Prionex® (Pentapharm) and 1.4 x 10-5 mg/ml QuantiLum™ Luciferase (Promega Corporation).
For ATP titrations for 7'-fluoroluciferin, reagent was created containing 200 mM HEPES, 200 mM PIPES, 1 mM CDTA, 0.5% Tergitol NP-9, 0.03% Benzyl dodecyldimethyl ammonium bromide, 30 mM thiourea, 10 mM magnesium sulfate, and 0.15 mM 7'-fluoroluciferin. This solution was separated into 3 parts and pH of the reagents were 7.4, 7.2 and 6.7. To some of this reagent, 10 mM ATP (Amersham/Invitrogen) was added. The ATP was serially diluted by quarter-logs from 10 mM to 0.32 mM.
Reactions were initiated by adding equal volumes (0.03 ml) of reagent and DMEM medium (Gibco/Invitrogen) containing 0.1% Prionex® (Pentapharm) and 1.4 x 10-5 mg/ml QuantiLum™ Luciferase (Promega Corporation).
Luminescence was measured for 0.5 seconds per well using Berthold Orion luminometer.

[3] = molecular target: T1, QuantiLum Luciferase; test: pH dependence of firefly luciferase luminescence with luciferin or 5'-fluoroluciferin; format: biochemical; conditions: for Absolute Luminescence: 630 µM substrate
Protocol: Aliquots of these solutions were then placed into tubes and buffers were added to 80 mM.
Luminescent reactions were initiated by combining 100 µl of the luciferase-containing solution and 100 µl of the luciferase detection reagents. Luminescence was integrated over 1 second per sample using the Veritas plate luminometer (Turner BioSystems). N=3 for each result.
The average luminescence measured for each set of samples is listed in Table 50 (relative standard deviation ≤ 4.0%). […]

[4] = test system: panel of recombinant human P450s; test: Two-step luminescent P450 screen of luciferin derivatives, whole panel incl. HLM; format: biochemical; conditions: 50 µM substrate; result in words
Protocol: In addition, it was also of interest to identify substrates with improved selectivity for single P450 enzymes. […] Derivatives useful as P450 substrates may be employed in assays to detect inhibitors for particular P450 enzymes (see Figures 17-18).
(§1) P450s are Supersomes™ purchased from Discovery Labware (BD/Gentest). […] HLM is human liver microsomes.
(§2) 1X substrate concentration: 50 µM.

[5] = molecular target: T2, CYP2C9 (Homo sapiens, UniProt P11712); test: Two-step luminescent P450 screen of luciferin derivatives; format: biochemical; conditions: 50 µM substrate, 1 pmole P450; result in words
T2 construct: purchased Discovery Labware (BD/Gentest); host or cells: insect cell expression system (membrane fractions)
T2 sequence (P11712 whole entry): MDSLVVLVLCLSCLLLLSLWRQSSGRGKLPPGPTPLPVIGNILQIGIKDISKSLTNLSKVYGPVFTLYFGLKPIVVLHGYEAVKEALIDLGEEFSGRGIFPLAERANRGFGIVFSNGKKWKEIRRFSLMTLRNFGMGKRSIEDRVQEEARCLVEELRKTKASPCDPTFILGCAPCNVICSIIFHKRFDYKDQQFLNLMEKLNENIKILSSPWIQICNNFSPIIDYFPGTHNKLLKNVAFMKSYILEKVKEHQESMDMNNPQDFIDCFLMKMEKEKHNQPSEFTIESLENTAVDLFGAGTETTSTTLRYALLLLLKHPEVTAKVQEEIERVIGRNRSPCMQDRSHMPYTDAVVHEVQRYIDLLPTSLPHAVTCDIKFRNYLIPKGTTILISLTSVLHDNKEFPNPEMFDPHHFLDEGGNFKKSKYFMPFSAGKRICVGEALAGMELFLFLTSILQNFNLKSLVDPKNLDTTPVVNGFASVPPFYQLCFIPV
Protocol: as §1, §2

[6] = molecular target: T3, CYP4A11 (Homo sapiens, UniProt Q02928); test: as above; format: biochemical; conditions: result in words
T3 construct: purchased Discovery Labware (BD/Gentest); host or cells: insect cell expression system (membrane fractions)
T3 sequence (Q02928 5-519): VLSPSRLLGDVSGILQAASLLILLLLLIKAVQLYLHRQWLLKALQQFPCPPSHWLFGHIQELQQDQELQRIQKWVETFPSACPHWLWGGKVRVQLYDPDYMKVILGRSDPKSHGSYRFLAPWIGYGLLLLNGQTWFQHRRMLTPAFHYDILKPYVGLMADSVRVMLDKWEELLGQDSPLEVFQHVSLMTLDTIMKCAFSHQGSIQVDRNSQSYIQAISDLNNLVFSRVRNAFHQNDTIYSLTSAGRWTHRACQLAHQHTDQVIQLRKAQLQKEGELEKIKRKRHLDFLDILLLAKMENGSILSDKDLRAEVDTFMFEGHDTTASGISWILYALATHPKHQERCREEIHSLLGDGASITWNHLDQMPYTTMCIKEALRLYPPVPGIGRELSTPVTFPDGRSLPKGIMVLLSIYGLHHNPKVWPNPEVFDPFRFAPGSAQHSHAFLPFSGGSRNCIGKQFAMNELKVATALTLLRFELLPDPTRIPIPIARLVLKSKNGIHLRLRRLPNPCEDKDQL
Protocol: as §1, §2

[7] = test system: porcine esterase; test: Two-step luminescent carboxylesterase assay with D-luciferin esters; format: biochemical; conditions: result in words
Text: D-luciferin esters were substrates for carboxylesterases in a two step luminescent assay format similar to that used for P450s. […] Though signals varied between P450 preparations no P450 preparation was much brighter than the control. It seems likely then that the signals were not due to P450 activity in the preparations hut rather, variable amounts of carboxyl esterase activities. Methyl, ethyl and picolinyl esters of D-luciferin were also characterized as substrates for a purified preparation of porcine esterase without any p450. In this format each ester linked group was cleaved by the esterase to yield D-luciferin that in turn reacted with luciferase to make light.

T1 sequence (P08659 whole entry): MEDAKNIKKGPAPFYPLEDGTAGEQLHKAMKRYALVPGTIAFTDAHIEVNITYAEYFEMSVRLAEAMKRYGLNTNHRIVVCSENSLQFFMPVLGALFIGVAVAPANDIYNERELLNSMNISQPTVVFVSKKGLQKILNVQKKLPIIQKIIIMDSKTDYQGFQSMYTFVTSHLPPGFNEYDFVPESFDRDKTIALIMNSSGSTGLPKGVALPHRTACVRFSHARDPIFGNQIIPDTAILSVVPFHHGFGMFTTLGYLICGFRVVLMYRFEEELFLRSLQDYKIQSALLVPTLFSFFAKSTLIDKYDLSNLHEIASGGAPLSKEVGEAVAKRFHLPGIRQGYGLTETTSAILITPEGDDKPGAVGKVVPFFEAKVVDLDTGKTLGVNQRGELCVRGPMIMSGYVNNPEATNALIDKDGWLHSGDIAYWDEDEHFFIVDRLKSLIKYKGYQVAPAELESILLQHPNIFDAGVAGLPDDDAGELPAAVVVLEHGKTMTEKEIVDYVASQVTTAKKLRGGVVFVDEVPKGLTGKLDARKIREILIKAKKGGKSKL

Question: `O=C(O)[C@H]1CSC(c2nc3cc(F)c(O)cc3s2)=N1` [5'-fluoroluciferin] was tested. Which “λmax of luminescence, blue-shifted from regular luciferin” value [1] did it give?
Answer: Its value is “approximately 25 nm”.

Question: What about the “λmax of luminescence, blue-shifted from regular luciferin” value ([1]; listed as 5' fluoroluciferin) of the same compound?
Answer: The value was “about 10 nm”.

Question: And the “ATP requirement of the luciferase reaction compared with luciferin” value [2]?
Answer: Its value is “saturated with ATP at a higher concentration”.

Question: And the “Absolute Luminescence” value ([3]; pH 6.900, MOPS)?
Answer: Its value is 272,127 RLU.

Question: And the “change of luminescence over the pH range tested” value ([3]; pH 6.9 to 8.3)?
Answer: The value was “about 40%”.

Question: What about the “Absolute Luminescence” value ([3]; pH 7.133, MOPS) of the same compound?
Answer: The value was 325,337 RLU.

Question: And the “Absolute Luminescence” value ([3]; pH 7.296, MOPS)?
Answer: Its value is 331,515 RLU.

Question: What about the “Absolute Luminescence” value ([3]; pH 7.303, HEPES) of the same compound?
Answer: The value was 323,456 RLU.

Question: What about the “Absolute Luminescence” value ([3]; pH 7.499, MOPS) of the same compound?
Answer: Its value is 334,288 RLU.

Question: What about the “Absolute Luminescence” value ([3]; pH 7.521, HEPES) of the same compound?
Answer: The value was 360,308 RLU.

Question: And the “Absolute Luminescence” value ([3]; pH 7.673, Tricine)?
Answer: The value was 351,411 RLU.

Question: What about the “Absolute Luminescence” value ([3]; pH 7.720, HEPES) of the same compound?
Answer: Its value is 378,927 RLU.

Question: And the “Absolute Luminescence” value ([3]; pH 7.883, Tricine)?
Answer: Its value is 357,883 RLU.

Question: And the “decrease of luminescence when buffer changed from HEPES to tricine” value ([3]; pH 7.89 reagent)?
Answer: The value was 6%.

Question: And the “Absolute Luminescence” value ([3]; pH 7.892, HEPES)?
Answer: The value was 377,498 RLU.

Question: What about the “Absolute Luminescence” value ([3]; pH 8.100, Tricine) of the same compound?
Answer: The value was 357,041 RLU.

Question: What about the “Absolute Luminescence” value ([3]; pH 8.327, Tricine) of the same compound?
Answer: Its value is 317,030 RLU.

Question: For `COc1cc2nc(C3=NC(C(=O)O)CS3)sc2cc1OC` (stereo not drawn) [5,6-dimethoxyluciferin], which “luminescent signals with the panel of P450 enzymes” value [4] is on record?
Answer: The value was “did not produce large luminescent signals with any P450”.

Question: And the “P450 activity / selectivity with the derivative as substrate” value [5]?
Answer: The value was “preferred substrate”.

Question: And the “P450 activity / selectivity with the derivative as substrate” value [6]?
Answer: Its value is “preferred substrate”.

Question: `Nc1ccc(Oc2ccc3nc(C4=N[C@@H](C(=O)O)CS4)ccc3c2)cc1` [6(p-aminophenyloxy)-quinolylluciferin] was tested. Which “luminescent signals with the panel of P450 enzymes” value [4] did it give?
Answer: The value was “did not produce large luminescent signals with any P450”.

Question: `CCOC(=O)[C@H]1CSC(c2nc3ccc(O)cc3s2)=N1` [D-luciferin ethyl ester] was tested. Which “substrate for carboxylesterases in a two step luminescent assay format” value (“substrate for carboxylesterases” for short) [7] did it give?
Answer: The value was “effective”.

Question: How did the “substrate for carboxylesterases” value [7] turn out when `COC(=O)[C@H]1CSC(c2nc3ccc(O)cc3s2)=N1` [D-luciferin methyl ester] was run?
Answer: The value was “effective”.

Question: `O=C(OCc1cccnc1)[C@H]1CSC(c2nc3ccc(O)cc3s2)=N1` [D-luciferin picolinyl ester, m-picolinyl ester of luciferin] was tested. Which “substrate for carboxylesterases” value [7] did it give?
Answer: Its value is “effective”.
